Activity calls are given as the source filed them.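 The calls were made as follows: active = inhibition of at least 30% at one or more tested concentrations; inactive = inhibition below 30% at every dose.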
Columns and labels:
[1] = system: BSR cells, Bluetongue virus CPE, ATP luminescence, 72 h; assay: antiviral protection against BTV-induced cell death – arbovirus, BSR cells, confirmation (AID 1250)
[2] = as above; details: BSR cells, Bluetongue virus CPE, ATP luminescence, 72 h; at 20 µM (top of the series)

SMILES | IC50 [1] [µM] | CPE inhibition [2]
CC(C)Cc1csc(NC(=O)c2ccccc2Cl)c1C(=O)O | 20.6 | 
CC(=O)Nc1cccc(Oc2ncnc3scc(-c4ccccc4)c23)c1 | 15.6 | 
O=C(/C=C/c1cccs1)Nc1scc(-c2ccccc2)c1C(=O)O | 6.24 | 
O=c1oc(-c2cc3ccccc3o2)nc2sc3c(c12)CCCC3 | 4.59 | 
O=C(/C=C/c1ccccc1)Nc1scc(-c2ccccc2)c1C(=O)O | 3.06 | 
Cc1nc(CS(=O)c2ccc(Cl)cc2)cc(NCc2ccc(Cl)cc2Cl)n1 (stereo not drawn) | 9.42 | 
Cc1nn(-c2ccccc2)c(Cl)c1/C=N/Nc1ccc(Cl)c(C(=O)O)c1 | 14.5 | 
CC(NC(=O)c1cccs1)c1nnc(SCc2ccc(Cl)cc2Cl)n1C (stereo not drawn) | 9.37 | 
CCOc1ccc(-c2cc3nc(C4CCN(C(=O)OC(C)(C)C)CC4)c(C(=O)O)cn3n2)cc1 | 19.8 | 
C/C(=N\NC(=O)c1ccccc1C)c1ccc(NC(=O)c2cccs2)cc1 | 0.524 | 
COC(=O)c1ccccc1NC(=O)CN1CCC(n2nnc3cc(F)ccc32)CC1 | 0.178 | 
N#Cc1sc2nc(-c3cccs3)cc(-c3ccc(F)cc3)c2c1N | 2.28 | 
COc1ccc(N=C2S/C(=C\c3ccc(OCC(=O)O)cc3)C(=O)N2CCc2c[nH]c3ccccc23)cc1 | 15.6 | 
Cc1cccc(C)c1-n1cccc1/C=C1/C(=N)N2C(=NC1=O)SN=C2S(C)(=O)=O | 16.4 | 
Oc1ccc(Nc2nc(NCC3CCCO3)c3ccccc3n2)cc1 (stereo not drawn) | 20.8 | 
Cc1ccc(-c2csc(NC(=O)/C=C/c3ccco3)c2C(=O)O)cc1 | 8.57 | 
C(=N\Nc1nc(-c2ccccc2)cs1)/c1cccs1 | 15.5 | 
COc1ccc(-c2csc(NC(=O)c3ccco3)n2)cc1 | 19.3 | 
COc1ccc(-c2csc(NC(=O)C3=NN(c4ccccc4)C(=O)CC3)n2)cc1 | 20.7 | 
O=C(Nc1ccccc1)Nc1snnc1C(=O)Nc1cccc(O)c1 | 19 | 
Cc1nc(Nc2ccc3c(c2)OCCO3)c2nnn(Cc3ccccc3Cl)c2n1 | 20.8 | 
O=c1oc(/C=C/c2ccccc2)nc2sc3c(c12)CCC3 | 8.92 | 
COc1ccc(CN(C(=O)c2cc3ccccc3oc2=O)C2CCCCC2)cc1OC | 16.6 | 
COc1ccc(C2C=C(c3ccc(C)cc3)Nc3ncnn32)cc1 (stereo not drawn) | 13 | 
CCc1nn2c(N)c(/C=C3\C=Nc4ccccc43)c(=O)nc2s1 | 18.3 | 

SMILES | IC50 [1] [µM] | CPE inhibition [2]
CCNc1nc(SCCOc2ccc(Cl)cc2Cl)nc(N(C)C)n1 | 5.92 | 
CC(C)c1ccc(-c2csc(NC(=O)c3cccs3)c2C(=O)O)cc1 | 11.1 | 
CC(C)(C)c1c(Cl)c(O)c(-c2ccccc2)c(=O)n1-c1ccccc1 | 15.5 | 
COc1cc(C(=O)Nc2nc(-c3ccc(C)cc3)cs2)ccc1OCC(=O)N1CCOCC1 | 4 | 
CC(C)COc1ccc(C(=O)Nc2sc3c(c2C(=O)O)CC(C)(C)OC3)cc1 | 13.1 | 
CCOc1ccc(N=Nc2c(=O)[nH]n3c(=O)c4c([nH]c23)CCCC4)cc1 | 16.6 | 
Cc1ccc(N2C(=O)/C(=C\c3ccc(C(C)C)cc3)N=C2SC2CCOC2=O)cc1 (stereo not drawn) | 12.1 | 
Cc1ccc(-c2csc(NC(=O)c3cccs3)n2)cc1 | 5 | 
CC(C)(C)n1nnnc1C(c1ccc(C(F)(F)F)cc1)N(Cc1ccc(F)cc1)Cc1ccco1 (stereo not drawn) | 20.5 | 
COc1cc(C(=O)Nc2nc(-c3ccc(F)cc3)cs2)ccc1OCC(=O)N1CCOCC1 | 10.6 | 
CCOC(=O)c1ccc(N2C(=O)C3C(/C=C/c4ccccc4)OC4(C(=O)c5ccccc5C4=O)C3C2=O)cc1 (stereo not drawn) | 19.6 | 
O=C(O)CSc1cc(C(=O)c2ccccc2O)cn2c(=O)c3c(-c4ccccc4)csc3nc12 | 14.1 | 
COc1ccc(Cn2c(C)c(C)c(C#N)c2NC(=O)Nc2cccc(C)c2)cc1 | 7.63 | 
O=C(/C=C/c1ccco1)Nc1sc2c(c1C(=O)O)CCC2 | 17 | 
COc1ccc(/C=C/C(=O)Nc2ccccc2C(=O)O)cc1OC | 4.78 | 
Cn1c(-c2c(N)n(-c3ccccc3)c3nc4ccccc4nc23)nc2ccccc21 | 2.42 | 
COc1cccc(C(=O)Nc2nc(-c3ccc4c(c3)OCO4)cs2)c1 | 9.98 | 
CC(C)Sc1nsc2nc(=O)c(/C=C3\C=Nc4ccccc43)c(N)n12 | 10.3 | 
CCOc1cc(/C=C(/C#N)c2ccc(Cl)cc2)cc(Cl)c1OCC(=O)O | 20.6 | 
CC(C(=O)Nc1ccccc1-c1ccccc1)N1CCN(S(=O)(=O)c2ccccc2)CC1 (stereo not drawn) | 1.4 | 
CCCCCCc1cc2cc(C(=O)Nc3ccccc3OC)c(=O)oc2cc1O | 9.14 | 
O=c1[nH]n2c(=O)c3c([nH]c2c1N=Nc1cccc(Cl)c1)CCCC3 | 18.5 | 
Cc1csc(NC(=O)c2c(O)c3c(n(CC(C)C)c2=O)CCCC3)n1 | 4.9 | 
O=C(Nc1nc(-c2ccc(Cl)cc2Cl)cs1)c1ccc(OCC2CCCO2)cc1 (stereo not drawn) | 5.08 | 
COc1ccc(Cl)cc1NC(=O)c1cc(-c2ccccc2O)n[nH]1 | 14.4 | 

SMILES | IC50 [1] [µM] | CPE inhibition [2]
C=CCn1c(CNC(=O)c2cccs2)nnc1SCc1ccc(Cl)cc1Cl | 11 | 
COc1ccc(NC(=O)c2c[nH]n3c(=O)cc(C4CCN(C(=O)OC(C)(C)C)CC4)nc23)cc1Cl | 12.2 | 
COCCCn1c(N)c(-c2nc3ccccc3n2C)c2nc3ccccc3nc21 | 7.62 | 
O=C(O)c1cccc(N/N=C/C2=C(Cl)c3cc(Cl)ccc3SC2)c1 | 13.2 | 
COc1ccc(NC(=O)c2cc3cccc(OC)c3oc2=Nc2ccc(C(=O)O)cc2)cc1OC | 13.3 | 
O=C(Nc1nc(-c2ccccc2)cs1)c1cccs1 | 10.1 | 
CC(C)(C)c1ccc(C(=O)Nc2sc3c(c2C(=O)O)CCC3)cc1 | 0.165 | 
CC(=O)OC[C@H]1O[C@@H](n2ncc(=O)[nH]c2=O)[C@H](OC(C)=O)[C@@H]1OC(C)=O | 9.79 | 
CCc1cc(C(=O)O)c(NC(=O)/C=C/c2ccc(OC)c(OC)c2)s1 | 1.68 | 
Cc1cc(C)c2cc(CN(Cc3cccnc3)C(=O)c3ccc(F)cc3)c(Cl)nc2c1 | 0.416 | 
CCOc1ccc(C(=O)Nc2cc(NC(=O)c3ccc(OCC)c(Cl)c3)cc(C(=O)O)c2)cc1Cl | 20.9 | 
COC(=O)c1ccccc1NC(=O)CN1CCC(NC(=O)c2ccccc2C)CC1 | 1.45 | 
O=C(O)c1ccc(N2C(=O)/C(=C/c3ccc(-c4ccc([N+](=O)[O-])cc4)o3)C=C2c2ccccc2)cc1 | 5.33 | 
O=c1[nH]n2c(=O)c3c([nH]c2c1N=Nc1cccc(C(F)(F)F)c1)CCCC3 | 19.5 | 
O=C(CSc1nc(-c2ccccc2)nc2c1Cc1ccccc1O2)Nc1ccc(C(=O)O)cc1 | 17.5 | 
CC1(c2ccc([N+](=O)[O-])cc2)CC(C)(C)N(C(=O)c2ccccc2)c2ccccc21 (stereo not drawn) | 9.68 | 
COc1cc([N+](=O)[O-])ccc1NC(=O)CC1SC(=Nc2ccc(F)cc2)N(CCC2=CCCCC2)C1=O (stereo not drawn) | 0.108 | 
Cc1ccc(-c2csc(NC(=O)C3=NN(c4ccccc4)C(=O)CC3)n2)cc1 | 11.1 | 
Nc1nc(-c2ccccc2)c(-c2ccc([N+](=O)[O-])cc2)s1 | 5.6 | 
Oc1ccc(Br)cc1-c1cc(-c2ccc(Cl)cc2)n[nH]1 | 17.5 | 
N#C/C(=C\c1cn[nH]c1-c1ccc(Cl)cc1)C(=O)NCc1ccccc1 |  | 12.6% (inactive)
COc1ccc(-c2nnc(-c3ccc(Br)o3)o2)cc1OC |  | 14.5% (inactive)
CC1CCCN(C(=O)c2cccc(S(=O)(=O)Nc3cc(C(F)(F)F)ccc3Cl)c2)C1 (stereo not drawn) |  | 28.2% (inactive)

— PubChem BioAssay AID1250 (SRMLSC, 2008)
